Measured values reported in patent publication US20090156477A1, “Compositions and Methods for Regulating Inflammatory Responses” (Massachusetts Institute of Technology, priority 2005, published 2009).

B1: FGF7: Recombinant human FGF7 from Sigma (protein, UniProt P21781 32-194, looked up)
Fibroblast growth factor 7: CNDMTPEQMATNVNCSSPERHTRSYDYMEGGDIRVRRLFCRTQWYLRIDKRGKVKGTQEMKNNYNIMEIRTVAVGIVAIKGVESEFYLAMNKEGKLYAKKECNEDCNFKELILENHYNTYASAKWTHNGGEMFVALNQKGIPVRGKKTKKEQKTAHFLPMAIT

Experiments:
Caco-2 cells = test: Transepithelial resistance (TER) of Caco-2 monolayers; format: cell-based, human; conditions: for inhibited TER increases: 100 ng/ml ligand, three days (72 hours) after addition, percent reduction in TER compared to PBS treated cells; for time after treatment at which reductions in TER were evident: Caco-2 monolayers, TER followed over 48 hours; for reduced resistance on day 5: ligand added on day 0 and day 2, compared to untreated cells
Procedure: Caco-2 cells were grown close to confluence, and T84 cells were grown to confluence. The apical chambers of transwell plates with 6.5 mm diameter and 3 μm pore size filters were pretreated with 50 μl of 45 μg/ml collagen IV in 60% ethanol 24 hours prior to plating and incubated overnight at room temperature. After reaching confluence, cells were washed with 20 ml PBS and treated with 3.5 ml trypsin-EDTA per 175 cm^2 flask for 20-60 min at 37° C. until cells detached. Cells were resuspended in 16.5 ml media appropriate to the cell type. Each apical chamber was supplemented with 82 μl cell solution. The basolateral chamber was filled with 1 ml propagation media. Filters were fed with new media every two days over the course of experiments.
Caco-2 and T84 cells were allowed to grow on transwells to form monolayers. Monolayer formation was examined every other day by light microscopy as well as by transepithelial resistance (TER) measurements using an EVOM ohmmeter (World Precision Instruments, Sarasota, Fla.). After monolayer formation, cells were treated with 100 ng/ml FGF1, 100 ng/ml FGF2, 100 ng/ml FGF7 or an equivalent volume (10 μl) of PBS. TER measurements were made either after 72 hours or at each of the 30 minutes, 1 hour, 2 hours, 4 hours, 9 hours, 24 hours and 48 hours timepoints. To determine the effects of multiple additions of ligand, FGFs or PBS were added initially and again after 2 days, and TER measurements were made after 0, 2 and 5 days.
To probe the mechanism by which various FGFs induced cell mediated effects, various media treatments were employed. Ammonium tetrathiomolybdate (TM) was added 24 hours prior to the addition of ligands to yield a final concentration of 200 μM, sufficient to prevent the release of FGF1 [3]. Similarly, sodium chlorate, which reduces cell HSPGs and the sulfation of associated HSGAGs, was added 24 hours prior to the addition of ligands to yield a final concentration of 50 mM [33,34]. Antibodies and kinase inhibitors were added immediately prior to ligands. Antibodies to FGF1, FGFR1 and FGFR3 were added at a 1:100 dilution. Kinase inhibitors were added to yield final concentrations of 50 μM LY294002, 20 μM PD98059, 1 μM SB203580. All experiments were performed in triplicate.
Caco-2 cells were grown to just prior to confluency. The apical chambers of transwell plates with 6.5 mm diameter and 3 μm pore size filters were pretreated with 50 μl of 45 μg/ml mouse recombinant collagen IV (BD Biosciences, Bedford, Mass.) in 60% ethanol 24 hours prior to plating. Plates were incubated overnight at room temperature. Just prior to confluency, cells were washed with 20 ml phosphate buffered saline (PBS) and treated with 3.5 ml trypsin-EDTA per 175 cm^2 flask for 20-60 min at 37° C., until cells detached. Cells were resuspended in 16.5 ml media appropriate to the cell type. Each apical chamber was supplemented with 82 μl cell solution. The basolateral chamber was filled with 1 ml propagation media. Filters were fed with new media every two days over the course of experiments.
Caco-2 cells were allowed to grow on transwells to form monolayers. Monolayer formation was examined every other day by light microscopy as well as by TER measurements using an EVOM ohmmeter (World Precision Instruments, Sarasota, Fla.). After monolayer formation, cells were treated with 100 ng/ml recombinant human FGF1 (Amgen, Thousand Oaks, Calif.), 100 ng/ml recombinant human FGF2 [1], 100 ng/ml recombinant human FGF7 (Sigma, St. Louis, Mo.), or an equivalent volume (10 μl) of PBS. TER measurements were made after each of 30 minutes, 1 hour, 2 hours, 4 hours, 9 hours, 24 hours and 48 hours.
To probe the mechanism by which various FGFs induced cellular mediated effects, various media treatments were employed. TM was added 24 hours prior to the addition of ligands to yield a final concentration of 200 μM, sufficient to prevent the release of FGF1 [3]. […]

T84 cells = test: T84 proliferation assay (whole cell number); format: cell-based, human; conditions: for increased whole cell number: 100 ng/ml ligand, three days, vs PBS control
Procedure: Caco-2 cells were grown to just prior to confluence, and T84 cells were grown to confluence. Each flask was washed with 20 ml PBS and treated with 3 ml trypsin-EDTA at 37° C. for 20-60 minutes until cells detached. Cells were centrifuged for 3 minutes at 195×g. The supernatant was aspirated, and the cells were resuspended in 10 ml media. The cell density was measured using an electronic cell counter, and the suspension was diluted to 50,000 cells/ml. The suspension was plated at 1 ml/well into 12-well tissue culture plates. After a 24 hour incubation in a 5% CO2, 37° C. humidified incubator, the media was aspirated, the wells were washed with serum free media, and the cells were supplemented with media containing 0.1% FBS. The wells were then supplemented with 10 μl PBS, 50 mM sodium chlorate, or 200 μM TM, and incubated for 24 hours. Subsequently, cells were supplemented with 100 ng/ml FGF1, FGF2, FGF7, or 10 μl PBS, and incubated for 72 hours. Wells were then washed twice with PBS and treated with 0.5 ml trypsin-EDTA/well and incubated at 37° C. until cells detached. Whole cell number was determined using an electronic cell counter. Data was averaged over three experiments, each consisting of four wells per condition.

| Molecule | inhibited TER increases (Caco-2 cells; Caco-2 cells) [%] | reduced TER at 48 hours (Caco-2 cells; Caco-2 cells, 100 ng/ml, 48 hours) [%] | effect of added agent on FGF-induced reduction in TER (Caco-2 cells; Caco-2 cells, agent given before or with 100 ng/ml FGFs (TM 200 μM, sodium chlorate 50 mM, LY294002 50 μM, PMA 100 ng/ml, antibodies 1:100)) | reduction of TER in TM treated cells (Caco-2 cells; Caco-2 monolayers pretreated with 200 μM TM, all time points beginning at 4 hours) | reduction of TER with the addition of heparin (Caco-2 cells; Caco-2 monolayers pretreated with 50 mM sodium chlorate, heparin 500 ng/ml with ligands, vs PBS) | time after treatment at which reductions in TER were evident (Caco-2 cells; 100 ng/ml) [h] | effect of added agent on proliferative effect of FGF2 and FGF7 (T84 cells; TM 200 μM, FGF1 added to TM treated cells) | proliferation (in words) (T84 cells; over three days) | reduced resistance on day 5 (Caco-2 cells; Caco-2 cells) [%] | increased whole cell number (T84 cells) [%] |
| --- | --- | --- | --- | --- | --- | --- | --- | --- | --- | --- |
| FGF1: Recombinant human FGF1 from Amgen | 35.1±12.3 | 45.1±5.2 | restored the ability of FGF2 and FGF7 to reduce TER | still elicited significant reductions in TER | reduced TER compared to PBS | 2 | restored the proliferative capacity of these ligands | did not induce the proliferation |  |  |
| FGF2: Recombinant human FGF2, produced as described | 67.2±25.8 |  |  |  |  | 4 |  |  | 43.6±11.1 | 24.8±8.8 |
| B1 | 61.4±17.3 |  |  |  |  | 4 |  |  | 44.4±8.7 | 11.4±3.8 |
